Source: patent US20150148377A1, “Quinoline Derivatives” (NOVARTIS AG, priority 2011, published 2015)

Legend:
[1] = target: T1, PI3K alpha (Homo sapiens, UniProt P42336); assay: Enzymatic PI3K alpha isoform inhibition (lipid kinase activity, Kinase-Glo); type: biochemical; conditions: enzymatic assay
T1 construct: His tag (C); made in house; host or cells: baculovirus; Tn5 (Trichoplusia ni) or TiniPro insect cells
Method: The kinase reaction is performed in a final volume of 50 μl per well of a half area COSTAR, 96 well plate. The final concentrations of ATP and phosphatidyl inositol in the assay are 5 μM and 6 μg/mL, respectively. The reaction is started by the addition of PI3 kinase, e.g. PI3 kinase δ.
(§1) In a more preferred assay, the kinase reaction is performed in a final volume of 10 μl per well of a low volume non-binding CORNING, 384 well black plate (Cat. No. #3676). The final concentrations of ATP and phosphatidyl inositol (PI) in the assay are 1 μM and 10 μg/mL, respectively. The reaction is started by the addition of ATP.
(§2) The components of the assay are added per well as follows:
(§3) 50 nl test compounds in 90% DMSO per well, in columns 1-20, 8 concentrations (1/3 and 1/3.33 serial dilution step) in single. • Low control: 50 nl of 90% DMSO in half the wells of columns 23-24 (0.45% in final). • High control: 50 nl of reference compound (e.g. compound of Example 7 in WO 2006/122806) in the other half of columns 23-24 (2.5 μM in final). • Standard: 50 nl of reference compound as just mentioned diluted as the test compounds in columns 21-22. • 20 mL ‘buffer’ are prepared per assay: • 200 μl of 1M TRIS HCl pH7.5 (10 mM in final) • 60 μl of 1M MgCl2 (3 mM in final) • 500 μl of 2M NaCl (50 mM in final) • 100 μl of 10% CHAPS (0.05% in final) • 200 μl of 100 mM DTT (1 mM in final) • 18.94 mL of nanopure water • 10 mL ‘PI’ are prepared per assay: • 200 μl of 1 mg/mL 1-alpha-Phosphatidylinositol (Liver Bovine, Avanti Polar Lipids Cat. No. 840042C MW=909.12) prepared in 3% OctylGlucoside (10 μg/mL in final) • 9.8 mL of ‘buffer’ • 10 mL ‘ATP’ are prepared per assay: • 6.7 μl of 3 mM stock of ATP giving a final concentration of 1 μM per well • 10 mL of ‘buffer’ • 2.5 mL of each PI3K construct are prepared per assay in ‘PI’ with the following final concentration: • 10 nM PI3K alfa EMV B1075 • 25 nM beta EMV BV949 • 10 nM delta EMV BV1060 • 150 nM gamma EMV BV950 • 5 μl of ‘PI/PI3K’ are added per well. • 5 μl ‘ATP’ are added per well to start the reaction. • The plates are then incubated at room temperature for 60 minutes (alfa, beta, delta) or 120 minutes (gamma). • The reaction is terminated by the addition of 10 μl Kinase-Glo (Promega Cat. No. #6714). • The assay plates are read after 10 minutes in Synergy 2 reader (BioTek, Vermont USA) with an integration time of 100 milliseconds and sensitivity set to 191. • Output: The High control is around 60'000 counts and the Low control is 30'000 or lower • This luminescence assay gives a useful Z′ ratio between 0.4 and 0.7
(§4) IC50 is determined by a four parameter curve fitting routine that comes along with “excel fit”. A four parameter logistic equation is used to calculate IC50 values (IDBS XLfit) of the percentage inhibition of each compound at 8 concentrations (usually 10, 3.0, 1.0, 0.3, 0.1, 0.030, 0.010 and 0.003 μM). Alternatively, IC50 values are calculated using idbsXLfit model 204, which is a 4 parameter logistic model.
(§5) Yet alternatively, for an ATP depletion assay, compounds of the formula I to be tested are dissolved in DMSO and directly distributed into a white 384-well plate at 0.5 μl per well. To start the reaction, 10 μl of 10 nM PI3 kinase and 5 μg/mL 1-alpha-phosphatidylinositol (PI) are added into each well followed by 10 μl of 2 μM ATP. The reaction is performed until approx 50% of the ATP is depleted, and then stopped by the addition of 20 μl of Kinase-Glo solution (Promega Corp., Madison, Wis., USA). The stopped reaction is incubated for 5 minutes and the remaining ATP is then detected via luminescence. IC50 values are then determined.

[2] = target: T2, PI3K delta (Homo sapiens, UniProt O00329); assay: Enzymatic PI3K delta isoform inhibition (lipid kinase activity, Kinase-Glo); type: biochemical; conditions: enzymatic assay
T2 construct: for the full-length p110-d subunit are generated and fused by overlapping PCR; His tag (C); made in house; host or cells: baculovirus; Tn5 (Trichoplusia ni) or TiniPro insect cells
T2 sequence (O00329 with tags, fused parts or gaps limits assumed): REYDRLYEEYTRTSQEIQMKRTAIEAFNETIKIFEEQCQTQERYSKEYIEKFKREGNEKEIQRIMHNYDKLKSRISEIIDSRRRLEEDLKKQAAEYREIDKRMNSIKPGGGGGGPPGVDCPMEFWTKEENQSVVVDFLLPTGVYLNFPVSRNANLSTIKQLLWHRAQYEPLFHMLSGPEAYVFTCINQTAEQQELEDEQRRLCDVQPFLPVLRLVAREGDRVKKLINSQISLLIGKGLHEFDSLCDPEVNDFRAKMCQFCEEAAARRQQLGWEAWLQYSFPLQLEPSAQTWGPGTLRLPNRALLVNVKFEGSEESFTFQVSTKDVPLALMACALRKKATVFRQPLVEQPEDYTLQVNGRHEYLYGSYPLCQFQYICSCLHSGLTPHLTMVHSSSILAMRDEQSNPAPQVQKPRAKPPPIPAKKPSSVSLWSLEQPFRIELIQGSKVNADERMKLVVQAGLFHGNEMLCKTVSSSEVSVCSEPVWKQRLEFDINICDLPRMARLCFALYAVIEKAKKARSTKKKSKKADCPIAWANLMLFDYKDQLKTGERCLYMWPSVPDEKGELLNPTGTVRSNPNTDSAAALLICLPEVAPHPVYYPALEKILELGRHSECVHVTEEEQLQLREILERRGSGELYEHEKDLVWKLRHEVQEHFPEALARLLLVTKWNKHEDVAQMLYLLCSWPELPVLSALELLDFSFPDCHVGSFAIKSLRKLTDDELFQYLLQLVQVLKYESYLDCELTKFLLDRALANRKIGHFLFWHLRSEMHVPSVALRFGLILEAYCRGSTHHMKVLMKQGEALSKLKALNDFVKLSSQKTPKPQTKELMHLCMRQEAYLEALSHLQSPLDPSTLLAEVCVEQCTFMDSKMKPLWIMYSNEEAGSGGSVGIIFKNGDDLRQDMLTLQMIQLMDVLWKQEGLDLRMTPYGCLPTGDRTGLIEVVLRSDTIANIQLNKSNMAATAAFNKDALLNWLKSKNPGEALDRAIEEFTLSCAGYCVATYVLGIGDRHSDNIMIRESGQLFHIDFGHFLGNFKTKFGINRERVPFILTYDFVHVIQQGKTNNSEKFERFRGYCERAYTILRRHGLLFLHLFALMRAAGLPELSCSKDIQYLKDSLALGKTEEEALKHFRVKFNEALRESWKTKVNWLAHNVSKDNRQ
Method: as §1, §2, §3, §4, §5

T1 sequence (P42336 with tags, fused parts or gaps limits assumed): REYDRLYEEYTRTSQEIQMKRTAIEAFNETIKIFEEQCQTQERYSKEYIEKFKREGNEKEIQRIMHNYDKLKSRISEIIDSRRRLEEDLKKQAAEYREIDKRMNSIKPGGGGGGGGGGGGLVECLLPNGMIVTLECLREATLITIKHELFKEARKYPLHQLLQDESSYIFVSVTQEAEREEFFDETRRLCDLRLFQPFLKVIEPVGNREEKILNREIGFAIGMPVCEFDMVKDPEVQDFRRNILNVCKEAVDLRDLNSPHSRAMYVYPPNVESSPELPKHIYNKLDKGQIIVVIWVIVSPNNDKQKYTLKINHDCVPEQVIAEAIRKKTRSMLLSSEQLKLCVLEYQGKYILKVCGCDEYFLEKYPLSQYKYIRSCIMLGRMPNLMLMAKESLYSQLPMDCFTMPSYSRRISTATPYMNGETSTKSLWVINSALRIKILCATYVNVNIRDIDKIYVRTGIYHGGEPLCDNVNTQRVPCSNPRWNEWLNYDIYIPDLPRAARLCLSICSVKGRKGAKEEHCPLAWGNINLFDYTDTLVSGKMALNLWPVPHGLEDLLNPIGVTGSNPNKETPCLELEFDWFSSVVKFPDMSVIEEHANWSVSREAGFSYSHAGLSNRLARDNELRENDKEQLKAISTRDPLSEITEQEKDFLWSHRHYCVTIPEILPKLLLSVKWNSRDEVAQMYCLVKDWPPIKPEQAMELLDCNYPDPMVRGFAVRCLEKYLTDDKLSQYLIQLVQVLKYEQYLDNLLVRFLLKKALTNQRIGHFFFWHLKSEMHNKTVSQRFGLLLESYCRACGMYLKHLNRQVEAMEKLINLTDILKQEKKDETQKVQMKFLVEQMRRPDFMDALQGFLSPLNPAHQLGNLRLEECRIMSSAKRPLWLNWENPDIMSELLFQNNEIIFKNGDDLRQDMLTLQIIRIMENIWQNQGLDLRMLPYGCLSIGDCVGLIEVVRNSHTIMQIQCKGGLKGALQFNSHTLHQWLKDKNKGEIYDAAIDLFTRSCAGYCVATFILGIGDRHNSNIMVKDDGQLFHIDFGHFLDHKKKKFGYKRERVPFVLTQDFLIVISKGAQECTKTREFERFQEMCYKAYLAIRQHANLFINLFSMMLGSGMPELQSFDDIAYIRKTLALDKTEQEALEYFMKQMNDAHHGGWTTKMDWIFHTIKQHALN

SMILES | IC50 [1] | IC50 [2]
Cc1cc(-c2ccnc3ccc(O[C@H]4CCN(C(=O)C5CCS(=O)(=O)CC5)C4)cc23)cnc1S(C)(=O)=O [Example A23, (1,1-Dioxo-hexahydro-1lambda*6*-thiopyran-4-yl)-{(S)-3-[4-(6-methanesulfonyl-5-methyl-pyridin-3-yl)-quinolin-6-yloxy]-pyrrolidin-1-yl}-methanone] | 1140 nM | 10 nM
COc1ncc(-c2ccnc3ccc(O[C@H]4CCN(C(=O)C5CCOC5)C4)cc23)cc1C#N (stereo partly drawn) [Example A12, 2-Methoxy-5-{6-[(S)-1-((R,S)-tetrahydro-furan-3-carbonyl)-pyrrolidin-3-yloxy]-quinolin-4-yl}-nicotinonitrile] | 305 nM | 5 nM
COc1ncc(-c2ccnc3ccc(O[C@H]4CCN(C(=O)C5CCS(=O)(=O)CC5)C4)cc23)cc1CF [Example A9, (1,1-Dioxo-hexahydro-1lambda*6*-thiopyran-4-yl)-{(S)-3-[4-(5-fluoromethyl-6-methoxy-pyridin-3-yl)-quinolin-6-yloxy]-pyrrolidin-1-yl}-methanone] | 172 nM | 4 nM
CC(=O)N1CC[C@@H](C(=O)N2CC[C@H](Oc3ccc4nccc(-c5cnc(S(C)(=O)=O)c(C)c5)c4c3)C2)C1 [Example A21, 1-((R)-3-{(S)-3-[4-(6-Methanesulfonyl-5-methyl-pyridin-3-yl)-quinolin-6-yloxy]-pyrrolidine-1-carbonyl}-pyrrolidin-1-yl)-ethanone] | 822 nM | 7 nM
COc1ncc(-c2ccnc3ccc(O[C@H]4CCN(C(=O)C5CCOCC5)C4)cc23)cc1C(F)(F)F [Example A7, {(S)-3-[4-(6-Methoxy-5-trifluoromethyl-pyridin-3-yl)-quinolin-6-yloxy]-pyrrolidin-1-yl}-(tetrahydro-pyran-4-yl)-methanone] | 96 nM | 4 nM
COc1ncc(-c2ccnc3ccc(O[C@H]4CCN(C(=O)C5CCOCC5)C4)cc23)cc1F [Example A13, {(S)-3-[4-(5-Fluoro-6-methoxy-pyridin-3-yl)-quinolin-6-yloxy]-pyrrolidin-1-yl}-(tetrahydro-pyran-4-yl) methanone] | 802 nM | 5 nM
CCC(=O)N1CC[C@H](Oc2ccc3nccc(-c4cnc(OC)c(C)c4)c3c2)C1 [Example A2, 1-{(S)-3-[4-(6-Methoxy-5-methyl-pyridin-3-yl)-quinolin-6-yloxy]-pyrrolidin-1-yl}-propan-1-one] | 264 nM | < 3 nM

Other lines, results leading:

IC50 [1] | IC50 [2] | SMILES
30 nM | 20 nM | Nc1ncc(-c2ccnc3ccc(O[C@H]4CCN(C(=O)C5CCS(=O)(=O)CC5)C4)cc23)cc1C(F)(F)F [Example A31, {(S)-3-[4-(6-Amino-5-trifluoromethyl-pyridin-3-yl)-quinolin-6-yloxy]-pyrrolidin-1-yl}-(1,1-dioxo-hexahydro-1lambda*6*-thiopyran-4-yl)-methanone]
189 nM | 71 nM | COc1ncc(-c2ccnc3ccc(O[C@H]4CCN(C(=O)c5cn(C)cn5)C4)cc23)cc1C [Example A39, {(S)-3-[4-(6-Methoxy-5-methyl-pyridin-3-yl)-quinolin-6-yloxy]-pyrrolidin-1-yl}-(1-methyl-1H-imidazol-4-yl)-methanone]
851 nM | 21 nM | COc1ncc(-c2ccnc3ccc(O[C@H]4CCN(C(=O)c5ccc(=O)n(C)c5)C4)cc23)cc1C [Example A32, 5-{(S)-3-[4-(6-Methoxy-5-methyl-pyridin-3-yl)-quinolin-6-yloxy]-pyrrolidine-1-carbonyl}-1-methyl-1H-pyridin-2-one]
664 nM | 11 nM | Cc1cc(-c2ccnc3ccc(O[C@H]4CCN(C(=O)C5CCOCC5)C4)c(C)c23)cnc1S(C)(=O)=O [Example B5, {(S)-3-[4-(6-Methanesulfonyl-5-methyl-pyridin-3-yl)-5-methyl-quinolin-6-yloxy]-pyrrolidin-1-yl}-(tetrahydro-pyran-4-yl)-methanone]
